We go through five compounds from ChEMBL document CHEMBL1201862, “PubChem BioAssay data set” (2004).

Assay [1] concerns the target Dual specificity tyrosine-phosphorylation-regulated kinase 1A (Rattus norvegicus, UniProt Q63470). The assay is classed as biochemical, Homo sapiens.
The next assay relates to INS1. Briefly: beta cell apoptosis inhibitors, cytokine rescue, dose response, luminescence, retest (AID 449756).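 Further: cell death triggered by IL-1 beta plus TNF-alpha plus IFN-gamma mixture; protective hits raise ATP signal compared with cytokine alone wells.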 The assay is classed as functional, cell-based. The conditions noted are these: Rattus norvegicus.
Assay [2] addresses T1, Histone-lysine N-methyltransferase NSD2 (Homo sapiens, UniProt O96028).
T1 sequence (O96028 whole entry): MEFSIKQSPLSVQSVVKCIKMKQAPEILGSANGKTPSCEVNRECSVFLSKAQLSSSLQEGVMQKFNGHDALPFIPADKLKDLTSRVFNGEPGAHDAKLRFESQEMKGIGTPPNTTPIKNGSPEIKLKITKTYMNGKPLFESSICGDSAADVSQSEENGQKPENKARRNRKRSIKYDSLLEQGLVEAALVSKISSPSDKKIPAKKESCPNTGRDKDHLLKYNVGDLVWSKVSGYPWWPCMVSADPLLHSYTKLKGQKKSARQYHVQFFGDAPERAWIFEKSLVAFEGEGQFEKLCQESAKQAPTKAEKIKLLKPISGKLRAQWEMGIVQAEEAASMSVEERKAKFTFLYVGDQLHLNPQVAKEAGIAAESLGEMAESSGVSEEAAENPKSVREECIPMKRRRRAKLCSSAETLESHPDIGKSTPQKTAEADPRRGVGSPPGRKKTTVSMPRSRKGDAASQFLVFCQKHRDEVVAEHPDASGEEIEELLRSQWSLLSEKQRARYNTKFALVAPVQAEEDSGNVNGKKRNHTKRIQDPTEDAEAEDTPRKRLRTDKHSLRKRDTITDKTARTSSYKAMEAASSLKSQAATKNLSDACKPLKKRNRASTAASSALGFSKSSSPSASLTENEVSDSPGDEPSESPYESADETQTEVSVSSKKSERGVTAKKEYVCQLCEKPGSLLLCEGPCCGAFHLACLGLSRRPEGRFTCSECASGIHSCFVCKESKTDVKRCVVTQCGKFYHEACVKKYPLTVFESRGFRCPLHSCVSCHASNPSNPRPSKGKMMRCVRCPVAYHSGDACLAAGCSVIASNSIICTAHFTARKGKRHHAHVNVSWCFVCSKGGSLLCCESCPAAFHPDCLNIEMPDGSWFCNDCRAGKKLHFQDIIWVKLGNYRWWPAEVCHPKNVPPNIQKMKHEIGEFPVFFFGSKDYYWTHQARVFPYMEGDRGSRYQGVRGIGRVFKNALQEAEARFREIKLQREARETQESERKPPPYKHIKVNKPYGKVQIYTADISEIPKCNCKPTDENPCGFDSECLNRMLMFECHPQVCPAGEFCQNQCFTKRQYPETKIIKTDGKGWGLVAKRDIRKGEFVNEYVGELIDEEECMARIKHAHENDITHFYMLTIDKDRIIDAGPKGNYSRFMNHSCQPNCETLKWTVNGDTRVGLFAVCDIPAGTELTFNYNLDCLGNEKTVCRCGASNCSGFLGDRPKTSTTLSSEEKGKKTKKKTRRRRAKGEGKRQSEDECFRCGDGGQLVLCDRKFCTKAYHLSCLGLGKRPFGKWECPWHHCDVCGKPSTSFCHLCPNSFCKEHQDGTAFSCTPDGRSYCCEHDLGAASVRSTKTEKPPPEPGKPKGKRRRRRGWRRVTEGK
The assay is classed as biochemical.

Another assay has as its target T2, Protein RecA (Mycobacterium tuberculosis, UniProt P9WHJ3).
T2 sequence (P9WHJ3 whole entry): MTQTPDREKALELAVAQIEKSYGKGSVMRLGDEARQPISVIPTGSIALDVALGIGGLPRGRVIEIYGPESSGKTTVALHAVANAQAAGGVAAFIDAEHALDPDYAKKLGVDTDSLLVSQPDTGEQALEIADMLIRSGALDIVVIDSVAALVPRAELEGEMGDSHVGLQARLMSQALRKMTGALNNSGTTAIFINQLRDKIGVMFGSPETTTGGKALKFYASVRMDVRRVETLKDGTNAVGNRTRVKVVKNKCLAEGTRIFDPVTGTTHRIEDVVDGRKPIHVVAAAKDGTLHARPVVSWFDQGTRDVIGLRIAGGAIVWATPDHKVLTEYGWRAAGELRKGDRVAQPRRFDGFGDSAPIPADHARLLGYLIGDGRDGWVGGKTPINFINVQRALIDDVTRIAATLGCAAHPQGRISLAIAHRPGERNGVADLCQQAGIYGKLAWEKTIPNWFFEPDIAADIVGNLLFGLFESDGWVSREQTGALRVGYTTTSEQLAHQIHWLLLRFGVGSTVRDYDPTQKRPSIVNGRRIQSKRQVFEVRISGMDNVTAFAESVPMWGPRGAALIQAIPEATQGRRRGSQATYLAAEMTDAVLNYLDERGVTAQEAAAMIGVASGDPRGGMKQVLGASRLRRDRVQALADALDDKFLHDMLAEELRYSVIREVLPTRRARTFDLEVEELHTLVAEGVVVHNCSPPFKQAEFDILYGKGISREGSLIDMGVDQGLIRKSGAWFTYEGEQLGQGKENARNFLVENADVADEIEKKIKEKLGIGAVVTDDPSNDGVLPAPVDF
Description: Fluorescence Cell-Free Homogeneous Dose Retest to Identify Inhibitors of RecA-Intein Splicing Activity. [Related pubchem assays (depositor defined):AID2097, AID2223, AID489010, AID492950]. It counts as functional.

Assay [3] has as its target T3, RNA-binding protein pos-1 (Caenorhabditis elegans, UniProt G5EF15).
T3 sequence (G5EF15 whole entry): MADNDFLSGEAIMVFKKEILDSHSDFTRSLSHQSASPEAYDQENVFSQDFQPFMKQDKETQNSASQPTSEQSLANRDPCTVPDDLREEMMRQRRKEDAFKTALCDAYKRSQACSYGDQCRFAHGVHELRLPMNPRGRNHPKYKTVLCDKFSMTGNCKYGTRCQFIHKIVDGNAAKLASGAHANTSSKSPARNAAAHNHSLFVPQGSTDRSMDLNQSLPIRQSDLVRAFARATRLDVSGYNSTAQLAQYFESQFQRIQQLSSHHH
Description: inhibitors of POS-1/mex-3 RNA binding, dose response, biochemical, fluorescence polarization (AID 1964).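 Further: purified POS-1 fused to maltose binding protein made in E. coli; potency of compounds blocking POS-1 binding to fluorescent RNA.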 In general terms: Polarisation of emitted light reports the rotation of a fluorescent probe.

Assay [4] can be described thus: inhibitors of firefly luciferase expression or activity, dose response, H4 neuroglioma cells, luminescence (AID 1990). It counts as functional, cell-based.

The source made the active and inactive calls.

For orientation: AC50 means the concentration giving half of the maximal activity seen. In general, EC50 refers to the concentration giving half of the maximal effect. `COC(=O)c1cc(C)nc2c1C(=O)C(=O)C=C2N1CCOCC1`: the AC50 is 983 nM (active) in assay [1], 2710 nM (active) with INS1 and 407 nM (active) in assay [2]. The EC50 at Protein RecA is 199 nM (active).
`N#Cc1c(N2CCCC2)nc(N)c2c(N)nc(N3CCCC3)cc12`: the AC50 in assay [1] is 287 nM (active). Moreover, the half-maximal effective concentration (EC50) at Protein RecA is 109 nM (active).
`NS(=O)(=O)c1cc(C(=O)NC2CCSc3ccccc32)ccc1Cl` (stereo not given): in assay [3], the 50% effective concentration (EC50) is 13400 nM (inconclusive).
For the compound `CCOC(=O)C1=C(C)OC2(O)c3ccccc3C(=O)C12O` (stereo not given), the AC50 in assay [2] was 8900 nM (active).
As for `O=C1c2ccccc2C(=O)c2[nH]c(O)nc21`, the 50% effective concentration (EC50) in assay [4] is 5930 nM (active); in assay [3], 28900 nM (active).
